For data set [1], the target named is T1, rat NaP2b (SLC34A2) (Rattus norvegicus, UniProt Q9JJ09).
T1 construct: host or cells: HEK293
T1 sequence (Q9JJ09 1-695): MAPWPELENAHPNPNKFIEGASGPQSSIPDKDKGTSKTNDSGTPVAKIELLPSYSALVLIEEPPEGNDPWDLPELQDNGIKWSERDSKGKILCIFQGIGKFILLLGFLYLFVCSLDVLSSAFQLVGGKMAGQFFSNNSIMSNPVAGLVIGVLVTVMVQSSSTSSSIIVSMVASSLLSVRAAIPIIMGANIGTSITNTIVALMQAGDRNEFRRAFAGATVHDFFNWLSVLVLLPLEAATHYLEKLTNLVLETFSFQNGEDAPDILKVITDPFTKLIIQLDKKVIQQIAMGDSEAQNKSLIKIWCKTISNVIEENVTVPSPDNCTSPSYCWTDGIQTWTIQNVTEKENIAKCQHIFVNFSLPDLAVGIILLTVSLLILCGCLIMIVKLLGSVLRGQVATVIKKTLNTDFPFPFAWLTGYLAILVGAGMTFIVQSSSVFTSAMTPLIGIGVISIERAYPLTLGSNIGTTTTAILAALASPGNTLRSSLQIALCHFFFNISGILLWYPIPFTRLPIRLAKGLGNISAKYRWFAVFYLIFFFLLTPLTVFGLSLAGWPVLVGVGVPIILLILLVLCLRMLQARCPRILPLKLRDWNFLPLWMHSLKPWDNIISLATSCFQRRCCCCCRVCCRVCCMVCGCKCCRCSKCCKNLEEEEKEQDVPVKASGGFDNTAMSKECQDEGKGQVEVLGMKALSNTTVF
Briefly: Inhibition of NaP2b-mediated Pi (33P) uptake in transfected HEK293 cells, rat NaP2b. It counts as cell-based. To be noted: 33P Pi uptake, 0.1 mM phosphate, value given as pIC50 range. The gist of the method: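 HEK293 cells were transiently transfected with NaP2b cDNA using Lipofectamine and grown near confluence. Compounds were tested at twelve concentrations from 0.1 nM to 30 uM in duplicate, and 33P-phosphate uptake was counted by scintillation after lysis. Results are expressed as pIC50.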

Data set [2] can be described thus: Stability of compounds in simulated gastric fluid (SGF). Format: in vitro ADME. The conditions noted are these: simulated gastric fluid (3 mg/mL pepsin), incubation time 6 hr, relative to t=0. As to the method: (§1) Test compounds were incubated at […] in simulated gastric fluid (SGF; standard USP solution with 3 mg/mL pepsin) or simulated intestinal fluid (SIF; standard USP solution with 3 mg/mL pancreatin) for 3 hr or 6 hr. HPLC-UV or HPLC-MS were used to determine test compound levels using peak area %. Results (Table 14) were reported as the percentage of test compound remaining after incubation in a given condition relative to test compound present at t=0 in the same condition.

A short description of data set [3]: Stability of compounds in simulated intestinal fluid (SIF). It counts as in vitro ADME. The conditions noted are these: simulated intestinal fluid (3 mg/mL pancreatin), incubation time 6 hr, relative to t=0. On the procedure:
as §1

Data set [4] in a line: Determination of compound Cmax and AUC after oral gavage (plasma LC-MS/MS). It counts as in vivo, Sprague-Dawley rats. The conditions noted are these: Sprague-Dawley, rat, plasma, po, Structure (I) examples, Table 15, actual oral dose 3-15 mg/kg, plasma 0.5-4 h. The gist of the method: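 Sprague-Dawley rats dosed by oral gavage at nominal 2.5 or 10 mg/kg; blood drawn at 0.5, 1, 2 and 4 h into K2EDTA. Plasma protein-precipitated with acetonitrile plus internal standard and analysed by LC-MS/MS against a plasma standard curve to derive Cmax and AUC.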

pIC50: −log10 of the molar value.

By pIC50 is commonly meant the IC50 on a negative log10 scale, so that one unit is a factor of ten. A high value points to a low IC50. Broadly, the AUC is the area under the concentration-time curve, a measure of exposure. One may read the Cmax as the peak of the concentration-time curve. On to `CN(CC(=O)N1CCN(CCOCCO)CC1)C(=O)c1cccc(C(=O)Nc2ccc(N3CCCCC3)cc2-c2cc(C(=O)N[C@H]3CCCc4ccccc43)ccn2)c1` [Example 246, (S)—N1-(2-(4-(2-(2-hydroxyethoxy)ethyl)piperazin-1-yl)-2-oxoethyl)-N1-methyl-N3-(4-(piperidin-1-yl)-2-(4-(1,2,3,4-tetrahydronaphthalen-1-ylcarbamoyl)pyridin-2-yl)phenyl)isophthalamide], for which, in data set [1], the pIC50 is 5.10 to 6.00. Moreover, the “% remaining, SGF” value in data set [2] is recorded as greater than 80%. For the same compound, the “% remaining, SIF” value in data set [3] is reported as greater than 80%. In data set [4], the AUC is less than 10 ng·h/mL and the Cmax is less than 10 ng/mL.
In turn, `COCCN(C)C(=O)N1CCN(CCN(C)Cc2cccc(C(=O)Nc3ccc(N4CCCCC4)cc3-c3cc(C(=O)NCc4cccc(C(F)(F)F)c4)ccn3)n2)CC1` [Example 210, N-(2-methoxyethyl)-N-methyl-4-(2-(methyl((6-(4-(piperidin-1-yl)-2-(4-(3-(trifluoromethyl)benzylcarbamoyl)pyridin-2-yl)phenylcarbamoyl)pyridin-2-yl)methyl)amino)ethyl)piperazine-1-carboxamide] gave a negative-log IC50 (pIC50) in data set [1] of 4.50 to 5.00. Further, the “% remaining, SGF” value in data set [2] is recorded as greater than 80%. The “% remaining, SIF” value in data set [3] is recorded as greater than 80%. In data set [4], the AUC is less than 30 ng·h/mL and the peak concentration (Cmax) is less than 10 ng/mL.
Take `CN(CCN1CCC[C@H]1C(=O)N(C)CCOCCOCCOCCC(=O)O)C(=O)c1cccc(C(=O)Nc2ccc(N3CCCCC3)cc2-c2cc(C(=O)N[C@H]3CCCc4ccccc43)ccn2)c1` [Example 191, 2-Methyl-1-((S)-1-(2-(N-methyl-3-((4-(piperidin-1-yl)-2-(4-(((S)-1,2,3,4-tetrahydronaphthalen-1-yl)carbamoyl)pyridin-2-yl)phenyl)carbamoyl)benzamido)ethyl)pyrrolidin-2-yl)-1-oxo-5,8,11-trioxa-2-azatetradecan-14-oic acid]: in data set [1], the pIC50 was 4.50 to 5.00. In data set [2], the “% remaining, SGF” value is listed as greater than 80%. Also, the “% remaining, SIF” value in data set [3] was greater than 80%. Moreover, in data set [4], the AUC was less than 10 ng·h/mL and the Cmax was less than 10 ng/mL.
In data set [1], `CN(CCOCCOCCOCCC(=O)O)C(=O)c1cccc(C(=O)Nc2ccc(Cl)cc2-c2cc(C(=O)NCc3cccc(C(F)(F)F)c3)ccn2)c1` [Example 238, 3-{2-[2-(2-{1-[3-({4-chloro-2-[4-({[3-(trifluoromethyl)phenyl]methyl}carbamoyl)pyridin-2-yl]phenyl}carbamoyl)phenyl]-N-methylformamido}ethoxy)ethoxy]ethoxy}propanoic acid] showed a pIC50 of 4.50 to 5.00. In addition, the “% remaining, SGF” value in data set [2] is reported as greater than 80%. The “% remaining, SIF” value in data set [3] is recorded as greater than 80%. In data set [4], this compound showed an AUC of less than 10 ng·h/mL and a Cmax of less than 10 ng/mL.
`COCCOCCOCCOCCOCCOCCOCCOCCNC(=O)CCOCCOCCOCCOCCSCc1cccc(C(=O)Nc2ccc(N3CCCCC3)cc2-c2cc(C(=O)NCc3cccc(C(F)(F)F)c3)ccn2)c1` [Example 148, 2-(2-(3-(27-oxo-2,5,8,11,14,17,20,23,30,33,36,39-dodecaoxa-42-thia-26-azatritetracontan-43-yl)benzamido)-5-(piperidin-1-yl)phenyl)-N-(3-(trifluoromethyl)benzyl)isonicotinamide] showed a negative-log IC50 (pIC50) in data set [1] of 5.10 to 6.00. Also, the “% remaining, SGF” value in data set [2] was greater than 80%. The “% remaining, SIF” value in data set [3] is given as greater than 80%. In data set [4], this compound had an AUC of less than 10 ng·h/mL and a Cmax of less than 10 ng/mL.
`CN(CCN1CCC[C@H]1C(=O)NCCOCCOCCOCCC(=O)O)C(=O)c1cccc(C(=O)Nc2ccc(N3CCCCC3)cc2-c2cc(C(=O)N[C@H]3CCCc4ccccc43)ccn2)c1` [Example 193, 1-((S)-1-(2-(N-methyl-3-((4-(piperidin-1-yl)-2-(4-(((S)-1,2,3,4-tetrahydronaphthalen-1-yl)carbamoyl)pyridin-2-yl)phenyl)carbamoyl)benzamido)ethyl)pyrrolidin-2-yl)-1-oxo-5,8,11-trioxa-2-azatetradecan-14-oic acid] showed a negative logarithm of the IC50 (pIC50) in data set [1] of 4.50 to 5.00. In data set [2], the “% remaining, SGF” value is given as greater than 80%. Moreover, the “% remaining, SIF” value in data set [3] is greater than 80%. In data set [4], the AUC is less than 30 ng·h/mL and the Cmax is less than 10 ng/mL.
Take `COCCOCCOCCOCCOCCOCCOCCN(C)CCN(C)C(=O)c1cccc(C(=O)Nc2ccc(N3CCCCC3)cc2-c2cc(C(=O)N[C@H]3CCCc4ccccc43)ccn2)c1` [Example 333, (S)—N^1-Methyl-N^1-(23-methyl-2,5,8,11,14,17,20-heptaoxa-23-azapentacosan-25-yl)-N3-(4-(piperidin-1-yl)-2-(4-(1,2,3,4-tetrahydronaphthalen-1-ylcarbamoyl)pyridin-2-yl)phenyl)isophthalamide]: the pIC50 in data set [1] is 5.10 to 6.00. Also, the “% remaining, SGF” value in data set [2] is reported as greater than 80%. The “% remaining, SIF” value in data set [3] was greater than 80%. In data set [4], the AUC is less than 50 ng·h/mL and the Cmax is less than 30 ng/mL.
In data set [1], `CCN(CC)CCN(C)C(=O)CCOCCOCCOCCOCCSCc1cccc(C(=O)Nc2ccc(N3CCCCC3)cc2-c2cc(C(=O)NCc3cccc(C(F)(F)F)c3)ccn2)c1` [Example 152, 2-(2-(3-(21-ethyl-18-methyl-17-oxo-5,8,11,14-tetraoxa-2-thia-18,21-diazatricosyl)benzamido)-5-(piperidin-1-yl)phenyl)-N-(3-(trifluoromethyl)benzyl)isonicotinamide] showed a pIC50 of 5.10 to 6.00. The “% remaining, SGF” value in data set [2] is greater than 80%. In addition, the “% remaining, SIF” value in data set [3] was greater than 80%. In data set [4], this compound yielded an AUC of less than 10 ng·h/mL and a Cmax of less than 10 ng/mL.
Take `O=C(NCc1cccc(C(F)(F)F)c1)c1ccnc(-c2cc(N3CCCCC3)ccc2NC(=O)c2cccc(CSCCOCCOCCOCCOCCC(=O)N(CCO)CCO)c2)c1` [Example 151, 2-(2-(3-(20-hydroxy-18-(2-hydroxyethyl)-17-oxo-5,8,11,14-tetraoxa-2-thia-18-azaicosyl)benzamido)-5-(piperidin-1-yl)phenyl)-N-(3-(trifluoromethyl)benzyl)isonicotinamide]: the pIC50 in data set [1] is 5.10 to 6.00. Besides, in data set [2], the “% remaining, SGF” value is recorded as greater than 80%. The “% remaining, SIF” value in data set [3] is given as 40-60%. In data set [4], this compound gave an AUC of less than 10 ng·h/mL and a Cmax of less than 10 ng/mL.
Taken in the same sequence, the figures for `O=C(O)CCOCCOCCOCCOCCCc1cccc(C(=O)Nc2ccc(OC3CCC3)cc2-c2cc(C(=O)N[C@H]3CCCc4ccccc43)ccn2)c1` [Example 285, (S)-16-(3-((4-cyclobutoxy-2-(4-((1,2,3,4-tetrahydronaphthalen-1-yl)carbamoyl)pyridin-2-yl)phenyl)carbamoyl)phenyl)-4,7,10,13-tetraoxahexadecan-1-oic acid] were greater than 6.00, 60-80%, greater than 80%, less than 50 ng·h/mL and less than 30 ng/mL.
In turn, `CN(CCOCCOCCOCCC(=O)O)C(=O)c1cccc(C(=O)Nc2ccc(N3CCCCC3)cc2-c2cc(C(=O)NCc3cccc(C(F)(F)F)c3)ccn2)c1` [Example 248, 3-[2-(2-{2-[N-methyl-1-(3-{[4-(piperidin-1-yl)-2-[4-({[3-(trifluoromethyl)phenyl]methyl}carbamoyl)pyridin-2-yl]phenyl}carbamoyl}phenyl)formamido]ethoxy}ethoxy)ethoxy]propanoic acid] showed a pIC50 in data set [1] of 4.50 to 5.00. Further, in data set [2], the “% remaining, SGF” value is reported as greater than 80%. For the same compound, the “% remaining, SIF” value in data set [3] is greater than 80%. In data set [4], this compound had an AUC of less than 10 ng·h/mL and a Cmax of less than 10 ng/mL.
In data set [1], `CN(CCN1CCCC[C@H]1C(=O)N(C)CCOCCOCCOCCC(=O)OC(C)(C)C)C(=O)c1cccc(C(=O)Nc2ccc(N3CCCCC3)cc2-c2cc(C(=O)N[C@H]3CCCc4ccccc43)ccn2)c1` [Example 240, tert-butyl 2-methyl-1-((S)-1-(2-(N-methyl-3-(4-(piperidin-1-yl)-2-(4-((S)-1,2,3,4-tetrahydronaphthalen-1-ylcarbamoyl)pyridin-2-yl)phenylcarbamoyl)benzamido)ethyl)piperidin-2-yl)-1-oxo-5,8,11-trioxa-2-azatetradecan-14-oate] gave a pIC50 of 5.10 to 6.00. Besides, the “% remaining, SGF” value in data set [2] was greater than 80%. Further, the “% remaining, SIF” value in data set [3] is listed as greater than 80%. Besides, in data set [4], the AUC is less than 10 ng·h/mL and the Cmax was less than 10 ng/mL.
